Reference: ChEMBL document CHEMBL1201862, “PubChem BioAssay data set” (2004)
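Where inhibition never reached the appropriate level, the endpoint shown equals the highest concentration tested. Otherwise, values were interpolated linearly from a five-concentration, 48-hour dose response in 96-well plates. GI50 = concentration required for 50% inhibition of growth.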 Activity calls are given as the source filed them. No stated cut-off is given here; in the data, active = GI50 up to about 1.1 µM and inactive = higher.

Tests used:
Assay in all cases: inhibition of tumour cell growth, NCI panel, 48 h
A498 = test system: A498
COLO 205 = test system: COLO 205
EKVX = test system: EKVX
HCC 2998 = test system: HCC 2998
HCT-15 = test system: HCT-15
HOP-62 = test system: HOP-62
HOP-92 = test system: HOP-92
K562 = test system: K562
LOX IMVI = test system: LOX IMVI
MCF7 = test system: MCF7
MDA-N = test system: MDA-N
Malme-3M = test system: Malme-3M
NCI/ADR-RES = test system: NCI/ADR-RES
OVCAR-3 = test system: OVCAR-3
PC-3 = test system: PC-3
SF-295 = test system: SF-295
SK-MEL-5 = test system: SK-MEL-5
SNB-19 = test system: SNB-19
SNB-75 = test system: SNB-75
T47D = test system: T47D

| SMILES | GI50 (A498) | GI50 (COLO 205) | GI50 (EKVX) | GI50 (HCC 2998) | GI50 (HCT-15) | GI50 (HOP-62) | GI50 (HOP-92) | GI50 (K562) | GI50 (LOX IMVI) | GI50 (MCF7) | GI50 (MDA-N) | GI50 (Malme-3M) | GI50 (NCI/ADR-RES) | GI50 (OVCAR-3) | GI50 (PC-3) | GI50 (SF-295) | GI50 (SK-MEL-5) | GI50 (SNB-19) | GI50 (SNB-75) | GI50 (T47D) |
| --- | --- | --- | --- | --- | --- | --- | --- | --- | --- | --- | --- | --- | --- | --- | --- | --- | --- | --- | --- | --- |
| CCCCCCCCC/C=C1/CC(CO)(COC(=O)CC(C(C)C)C(C)C)OC1=O (stereo unspecified) | 3.14 µM (inactive) | 0.193 µM (active) | 4.35 µM (inactive) | 2.39 µM (inactive) | 14.4 µM | 1.12 µM (inactive) | 1.28 µM (inactive) | 0.36 µM (active) | 11.5 µM (inactive) | 9.23 µM (inactive) | 0.21 µM (active) | 0.515 µM (active) | 14.1 µM (inactive) | 13.9 µM (inactive) | 6.75 µM (inactive) | 0.675 µM (active) | 3.16 µM (inactive) | 10.5 µM (inactive) | 4.51 µM (inactive) | 4.91 µM (inactive) |
| O=C(O)c1ccccc1-c1ccccc1C(=O)Nc1ccc2c(c1)Cc1ccccc1-2 | 19.4 µM (inactive) | 17.2 µM (inactive) | 22.1 µM (inactive) | 17.8 µM (inactive) | 20.4 µM | 58.6 µM (inactive) | 46.8 µM (inactive) | – | 22.5 µM (inactive) | 28.1 µM (inactive) | 27.4 µM (inactive) | 42.5 µM (inactive) | 45 µM (inactive) | 25.3 µM (inactive) | 41.1 µM (inactive) | 39.1 µM (inactive) | 15.5 µM (inactive) | 36.1 µM (inactive) | 68.4 µM (inactive) | 26.3 µM (inactive) |
| COc1ccc(/N=N\c2c(N)nn3c(SC)c(C#N)c(N)nc23)cc1 | 11.1 µM (inactive) | 12.9 µM (inactive) | 3.93 µM (inactive) | 3.96 µM (inactive) | 8.61 µM | 22.3 µM (inactive) | 9.4 µM (inactive) | 2.16 µM (inactive) | 1.74 µM (inactive) | 2.4 µM (inactive) | 13.6 µM (inactive) | 16.2 µM (inactive) | 23.4 µM (inactive) | 2.82 µM (inactive) | 6.87 µM (inactive) | 19.9 µM (inactive) | 16.1 µM (inactive) | 16.9 µM (inactive) | 17.8 µM (inactive) | 1.85 µM (inactive) |
| CCCCN(CCCC)CCC(O)c1cc2c(Cl)cc(Cl)cc2c2cc(C(F)(F)F)ccc12 (stereo unspecified) | 3.59 µM (inactive) | 10.8 µM (inactive) | 14.5 µM (inactive) | 11.7 µM (inactive) | 5.4 µM | 10 µM (inactive) | 1.32 µM (inactive) | 6.73 µM (inactive) | 6.52 µM (inactive) | 10.2 µM (inactive) | 12.7 µM (inactive) | 16.4 µM (inactive) | 12.1 µM (inactive) | 11.6 µM (inactive) | 10.1 µM (inactive) | 12.4 µM (inactive) | – | 19.1 µM (inactive) | 11.7 µM (inactive) | 12.8 µM (inactive) |
| C/C=C1/CN2CCC34c5ccccc5N5C(=O)C(C6CC78c9ccccc9N9C(=O)C=CC(C%10CC7N6C/C%10=C/C)C98)=CC(C1CC23)C54 (stereo unspecified) | 8.81 µM (inactive) | 5.09 µM (inactive) | 6.64 µM (inactive) | 5.9 µM (inactive) | 3.75 µM | 8.59 µM (inactive) | 6.32 µM (inactive) | 1.62 µM (inactive) | 10.3 µM (inactive) | 2.13 µM (inactive) | 5.47 µM (inactive) | 7.82 µM (inactive) | 8.34 µM (inactive) | 5.6 µM (inactive) | 2.1 µM (inactive) | 9.2 µM (inactive) | 5.83 µM (inactive) | 7.87 µM (inactive) | 6.62 µM (inactive) | 11.1 µM (inactive) |
| COc1ncnc2c(NC3OC(CO)C(O)C3O)ncnc12 (stereo unspecified) | 0.411 µM (active) | 0.307 µM (active) | 0.596 µM (active) | 1.26 µM (inactive) | 0.179 µM | 0.408 µM (active) | 0.0156 µM (active) | 0.0306 µM (active) | 0.0445 µM (active) | 0.041 µM (active) | 0.274 µM (active) | 2.74 µM (inactive) | 0.417 µM (active) | 0.733 µM (active) | 0.493 µM (active) | 0.579 µM (active) | 1.19 µM (inactive) | 1.16 µM (inactive) | 0.735 µM (active) | 0.708 µM (active) |
| CS(=O)(=O)N1CC(CCl)c2ccc(NCCN)cc21 (stereo unspecified) | 69 µM (inactive) | > 100 µM (inactive) | 47.9 µM (inactive) | > 100 µM (inactive) | > 100 µM | 14.8 µM (inactive) | 26.3 µM (inactive) | > 100 µM (inactive) | > 100 µM (inactive) | > 100 µM (inactive) | > 100 µM (inactive) | > 100 µM (inactive) | > 100 µM (inactive) | > 100 µM (inactive) | > 100 µM (inactive) | – | > 100 µM (inactive) | 39 µM (inactive) | 17.1 µM (inactive) | > 100 µM (inactive) |
| C[C@@H]1CC[C@@]2(OC1)O[C@H]1C[C@H]3[C@@H]4CC[C@H]5C[C@@H](OC6OC(CO)C(OC7OC(CO)C(O)C(OC8OCC(O)C(O)C8O)C7OC7OC(CO)C(O)C(O)C7O)C(O)C6O)[C@H](O)C[C@]5(C)[C@H]4CC[C@]3(C)[C@H]1[C@@H]2C (stereo partly specified) | 7.89 µM (inactive) | 2.46 µM (inactive) | 5.35 µM (inactive) | 12.3 µM (inactive) | 3.4 µM | 1.42 µM (inactive) | 23.6 µM (inactive) | 2.11 µM (inactive) | 1.39 µM (inactive) | 0.804 µM (active) | 10.8 µM (inactive) | 15.2 µM (inactive) | 2.52 µM (inactive) | 2.88 µM (inactive) | 3.15 µM (inactive) | 3.89 µM (inactive) | 9.84 µM (inactive) | 10.1 µM (inactive) | 13.6 µM (inactive) | 5.38 µM (inactive) |
| CC(=O)OCC1OC(On2ccccc2=S)C(OC(C)=O)C(OC(C)=O)C1OC(C)=O (stereo unspecified) | > 100 µM (inactive) | 81.5 µM (inactive) | > 100 µM (inactive) | > 100 µM (inactive) | > 100 µM | > 100 µM (inactive) | > 100 µM (inactive) | > 100 µM (inactive) | > 100 µM (inactive) | > 100 µM (inactive) | > 100 µM (inactive) | > 100 µM (inactive) | > 100 µM (inactive) | > 100 µM (inactive) | 69.2 µM (inactive) | > 100 µM (inactive) | > 100 µM (inactive) | > 100 µM (inactive) | > 100 µM (inactive) | 87.1 µM (inactive) |
| COc1ccc(C(C)NNC(=O)c2ccncc2)cc1F (stereo unspecified) | > 100 µM (inactive) | > 100 µM (inactive) | > 100 µM (inactive) | > 100 µM (inactive) | > 100 µM | > 100 µM (inactive) | > 100 µM (inactive) | > 100 µM (inactive) | > 100 µM (inactive) | > 100 µM (inactive) | > 100 µM (inactive) | > 100 µM (inactive) | > 100 µM (inactive) | > 100 µM (inactive) | > 100 µM (inactive) | > 100 µM (inactive) | > 100 µM (inactive) | > 100 µM (inactive) | > 100 µM (inactive) | > 100 µM (inactive) |
| NC(=O)/C=C/NC(=O)/C=N\O | > 100 µM (inactive) | > 100 µM (inactive) | > 100 µM (inactive) | > 100 µM (inactive) | > 100 µM | > 100 µM (inactive) | > 100 µM (inactive) | > 100 µM (inactive) | > 100 µM (inactive) | > 100 µM (inactive) | > 100 µM (inactive) | > 100 µM (inactive) | > 100 µM (inactive) | > 100 µM (inactive) | > 100 µM (inactive) | > 100 µM (inactive) | > 100 µM (inactive) | > 100 µM (inactive) | > 100 µM (inactive) | > 100 µM (inactive) |
| C/C(Cl)=N\OC(=O)Nc1ccc([N+](=O)[O-])cc1 | 15.3 µM (inactive) | 2.49 µM (inactive) | 19.3 µM (inactive) | 15.6 µM (inactive) | 14.1 µM | > 100 µM (inactive) | 2.59 µM (inactive) | 2.02 µM (inactive) | 5.36 µM (inactive) | 3.08 µM (inactive) | 10.8 µM (inactive) | 3.01 µM (inactive) | 17.6 µM (inactive) | 2.12 µM (inactive) | 16.2 µM (inactive) | 16.8 µM (inactive) | 17.4 µM (inactive) | 17.5 µM (inactive) | 16.7 µM (inactive) | 9.48 µM (inactive) |
| CCCCCCCCCCCC[C@H](O)[C@H]1CC[C@H]([C@H](O)CCCC[C@H](O)CCCCC[C@@H](O)CC2=C[C@H](C)OC2=O)O1 | 4.58 µM (inactive) | 4.21 µM (inactive) | 1.6 µM (inactive) | 17.4 µM (inactive) | 5.56 µM | 6.3 µM (inactive) | 4.03 µM (inactive) | 1.23 µM (inactive) | 1.11 µM (active) | 1.4 µM (inactive) | 2.37 µM (inactive) | 17.9 µM (inactive) | 1.61 µM (inactive) | 2.19 µM (inactive) | 3.1 µM (inactive) | 1.63 µM (inactive) | 1.75 µM (inactive) | 1.13 µM (inactive) | 4.99 µM (inactive) | 4.14 µM (inactive) |
| Cc1c[nH]c2c(O)cc3c(c12)[C@H](CCl)CN3C(=O)c1cc2cc(NC(=O)Nc3ccc4[nH]c(C(=O)N5C[C@@H](CCl)c6c5cc(O)c5[nH]cc(C)c65)cc4c3)ccc2[nH]1 [BIZELESIN] | 0.904 µM (active) | 8.91 µM (inactive) | > 100 µM (inactive) | 0.00109 µM (active) | – | 1.05 µM (active) | 48.5 µM (inactive) | 23.9 µM (inactive) | 3.6 µM (inactive) | 0.578 µM (active) | 22.2 µM (inactive) | 13.7 µM (inactive) | 0.071 µM (active) | 18.6 µM (inactive) | 33.9 µM (inactive) | 6.35 µM (inactive) | 12.5 µM (inactive) | 28.5 µM (inactive) | 1.09 µM (active) | < 0.001 µM (active) |
